Experimental findings from US20030219482A1, “Multiparticulate compositions for once-a-day administration” (priority 2002, published 2003) are described below.

SMILES strings stand for the structures. Where a name gives a salt, the structure may show the parent alone.

This data set can be described thus: Drug release (dissolution) of the controlled release tablets, USP apparatus Type I. It is filed as physicochemical. The conditions noted are these: 900 ml phosphate buffer pH 7.5, USP Type I basket 100 rpm, Example tablet. As for the experimental part: The tablets were characterized for drug release in 900 ml of phosphate buffer of pH 7.5. The USP apparatus Type I with basket speed at 100 rpm was used for the study. The samples of the media were periodically withdrawn and analyzed for drug content.

`Cc1cnc(C(=O)NCCc2ccc(S(=O)(=O)NC(=O)NC3CCCCC3)cc2)cn1` [Glipizide]: the “Cumulative percent drug released” value reads like this: (1 hour) 6.5%; (2 hours) 16.6%; (3 hours) 27.1%; (4 hours) 33.9%; (5 hours) 41.5%; (6 hours) 47.3%. Further, the “Cumulative percent drug released” value is, setting by setting: (8 hours) 55.4%; (10 hours) 67.9%; (12 hours) 75.2%; (15 hours) 85.8%; (18 hours) 93.0%; (21 hours) 99.4%. Besides, the “Cumulative percent drug released” value (24 hours) was determined as 102.5%.
Take `CN(C)C(=N)N=C(N)N` [Metformin Hydrochloride, Metformin hydrochloride]: the “Cumulative percent drug released” value worked out at 28.83% (1 hour); 49.59% (2 hours); 64.74% (3 hours); 78.09% (4 hours); 88.49% (5 hours); 93.26% (6 hours). In addition, the “Cumulative percent drug released” value runs as follows: (8 hours) 97.29%; (10 hours) 100.01%; (12 hours) 103.93%; (15 hours) 105.57%; (18 hours) 105.92%; (21 hours) 105.99%. Further, under “24 hours”, the “Cumulative percent drug released” value came to 106.47%.
